Among the test systems are T47D; MDA-MB-231; DLD-1; DMS-114; DMS-273; HOP-18; SNB-78; RXF 631; LXFL 529.
Holding throughout (assay): growth of human tumour cells (NCI), 48 h

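Cells were grown in 96-well plates and exposed to each compound for 48 hours at five concentrations; endpoints were interpolated linearly between bracketing concentrations, or set to the highest concentration if not reached. GI50: concentration for 50% inhibition of growth.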 Activity calls are given as the source filed them. No stated cut-off is given here; in the data, active = GI50 up to about 1.1 µM and inactive = higher. Some results are limits rather than exact numbers.

As for `Cc1cc(C)c(S(=O)(=O)N(CCCCN)OCCCN)c(C)c1`, the GI50 in the assay on T47D was 18.2 µM (inactive).
Consider `CCOC(=O)CCSS(=O)(=O)C(F)(F)F`, for which the GI50 with T47D was > 100 µM (inactive).
For `c1ccc(C(NC2=NCCO2)C2CC2)cc1` (stereo not given), the GI50 in the assay on MDA-MB-231 and in the assay on T47D was > 100 µM (inactive) throughout.
For the molecule `O=C(NC(Cc1ccc(I)cc1)C(=O)O)c1ccc(I)cc1` (stereo not given), the GI50 was > 100 µM (inactive) in the assay on DLD-1; 35.8 µM (inactive) in the assay on DMS-114; 94.8 µM (inactive) with DMS-273; > 100 µM (inactive) with HOP-18; > 89.3 µM (inactive) in the assay with SNB-78.
As to `CC1C(=O)C(C)C(c2cccs2)N(N=O)C1c1cccs1` (stereo not given), the GI50 with DLD-1 was > 100 µM (inactive); in the assay with DMS-114, 95.1 µM (inactive); in the assay with DMS-273, > 100 µM (inactive); in the assay on HOP-18, 11.4 µM (inactive); with SNB-78, > 68.2 µM (inactive).
Turning to `Clc1ccc(C(SCc2ccccc2)SCc2ccccc2)cc1`, the GI50 in the assay with MDA-MB-231 and in the assay on T47D was > 10 µM (inactive) in each case.
As for `COC(=O)[C@@H]1O[C@]12[C@@H](CO[Si](C)(C)C(C)(C)C)O[C@@H](n1cc(C)c(=O)[nH]c1=O)[C@@H]2O[Si](C)(C)C(C)(C)C`, the figures for the GI50 in the assay on MDA-MB-231 and in the assay with T47D were 19.9 µM (inactive) and 6.31 µM (inactive), respectively.
The matching figures for `C/C(=N\Nc1nc2ccccc2[nH]1)c1cccc[n+]1[O-]`: > 100 µM (inactive) and > 100 µM (inactive).
Consider `O=C(O)c1cnc2c(ccc3ncc(C(=O)O)c(O)c32)c1O`, for which the GI50 in the assay with MDA-MB-231 and with T47D was > 100 µM (inactive) each time.
Regarding `COc1cc(C2C(C(=O)O)=C(COC(C)=O)Oc3cc4c(cc32)OCO4)cc(OC)c1OC` (stereo not given), the GI50 in the assay with DMS-114, in the assay on DMS-273, with HOP-18, in the assay with RXF 631 and in the assay with SNB-78 was > 100 µM (inactive) in each case.
With `O=[N+]([O-])c1cccc2nc3ccccc3c(NCCNCCO)c12`, the GI50 with MDA-MB-231 is 0.017 µM (active); with T47D, 0.00819 µM (active).
As for `O=C1CCCC(=O)N1CCc1c[nH]c2ccccc12`, the GI50 with DLD-1, in the assay on DMS-114, in the assay on DMS-273, in the assay with LXFL 529, in the assay on RXF 631 and with SNB-78 was > 100 µM (inactive) in each case.
`Cc1cc(NC(=S)SCc2ccc(F)cc2)c([N+](=O)[O-])cc1C`: the GI50 with MDA-MB-231 is 14.6 µM (inactive); with T47D it was 48.8 µM (inactive).
For `COc1cc(NC(C)CCCN)c2ncccc2c1` (stereo not given) [PRIMAQUINE PHOSPHATE], the GI50 is 76.6 µM (inactive) in the assay on DLD-1; 37.7 µM (inactive) in the assay on DMS-114; > 100 µM (inactive) with DMS-273; > 36.1 µM (inactive) in the assay with HOP-18; 60.7 µM (inactive) in the assay on LXFL 529; 43.7 µM (inactive) with MDA-MB-231. Besides, the GI50 is > 91.2 µM (inactive) with RXF 631, > 100 µM (inactive) in the assay on SNB-78 and 16 µM (inactive) in the assay on T47D.
Turning to `OC(c1cc(C(F)(F)F)nc2c(Cl)cc(Cl)cc12)C1CCCCN1` (stereo not given), the GI50 with MDA-MB-231 was > 22.1 µM (inactive); with T47D it was 5.65 µM (inactive).
`CC1(O)OC(=O)C2=C1CCC1C2CCC2(C)C(O)CCC12` (stereo not given): the GI50 in the assay with MDA-MB-231 and in the assay on T47D was > 100 µM (inactive) in each case.
Take `CC(NC(=O)C(C)NC(=O)C(N)CCP(C)(=O)O)C(=O)O` (stereo not given): the GI50 with DLD-1, in the assay with DMS-273, in the assay on HOP-18 and with SNB-78 was > 100 µM (inactive) in each case.
On to `C=C(C)C(=O)[C@@]12C(=O)[C@@H](C)CC[C@H]1[C@H](C)C[C@@H]2C=C(C)C`, for which the GI50 in the assay on MDA-MB-231 is 21.9 µM (inactive).
Take `COC(=O)N/N=C(/CC1(O)C(=O)Nc2ccc([N+](=O)[O-])cc21)c1ccccc1` (stereo not given): the GI50 is 46.7 µM (inactive) in the assay with DLD-1; 41.9 µM (inactive) with DMS-114; 67.8 µM (inactive) with DMS-273; 36.8 µM (inactive) in the assay with LXFL 529; 18.3 µM (inactive) in the assay with MDA-MB-231; 20.9 µM (inactive) in the assay on SNB-78. Further, in the assay with T47D, the GI50 is 48.8 µM (inactive).
Take `COc1ccccc1Cc1nc(-c2ccccc2)nn(C2OC(COC(C)=O)C(OC(C)=O)C(OC(C)=O)C2OC(C)=O)c1=S` (stereo not given): the GI50 was > 31.3 µM (inactive) in the assay with DLD-1; 27.6 µM (inactive) in the assay on DMS-114; > 39.2 µM (inactive) in the assay on DMS-273; 27.9 µM (inactive) in the assay with HOP-18; 18.2 µM (inactive) in the assay on SNB-78.
Consider `O=[N+]([O-])c1ccc(-c2nc3cc([N+](=O)[O-])ccc3[nH]2)cc1`, for which the GI50 with T47D is 15.5 µM (inactive).
For `COc1ccc(/C=C2\CCNC2=O)cc1`, the GI50 in the assay with DLD-1, in the assay on DMS-114, with DMS-273, with HOP-18 and with SNB-78 was > 100 µM (inactive) throughout.
In the case of `O=NN1CCN=C1c1ccc([N+](=O)[O-])cc1`, the GI50 in the assay with DLD-1, in the assay on DMS-273, in the assay with LXFL 529 and with SNB-78 was > 100 µM (inactive) throughout.
In the case of `O=C(O)C1(C(O)c2ccccc2)SCCCS1` (stereo not given), the GI50 in the assay with MDA-MB-231 and in the assay with T47D was > 10 µM (inactive) throughout.
In the case of `COc1ccc(C2C(=O)c3ccc(OC)cc3OC2c2cccnc2)cc1` (stereo not given), the GI50 in the assay on MDA-MB-231 and in the assay with T47D was > 100 µM (inactive) each time.
Take `CCCCCCCCC(O)c1ccc(/C=C\C(O)CCCC(=O)O)s1` (stereo not given): the GI50 with DLD-1, in the assay on DMS-114, in the assay on DMS-273, with HOP-18, with LXFL 529 and in the assay on SNB-78 was > 100 µM (inactive) each time.
`CC(C)(C)N1C(C(=O)c2ccccc2)C1c1ccccc1` (stereo not given): the GI50 in the assay with DLD-1, in the assay on DMS-273, in the assay on LXFL 529, in the assay with RXF 631 and in the assay on SNB-78 was > 100 µM (inactive) each time.
Turning to `COc1ccccc1C1C(Cl)C(=O)N1n1cnc2ccccc2c1=O` (stereo not given), the GI50 in the assay on DLD-1 was > 100 µM (inactive); in the assay on DMS-114, > 100 µM (inactive); in the assay with DMS-273, > 100 µM (inactive); in the assay on HOP-18, 39.6 µM (inactive); in the assay with LXFL 529, > 100 µM (inactive); in the assay with SNB-78 it was > 100 µM (inactive).
As to `O=c1c(-c2ccc(O)cc2)coc2cc(O)cc(O)c12` [GENISTEIN], the GI50 in the assay with T47D was > 100 µM (inactive).
Turning to `Cc1nc2c(sc(=S)n2-c2ccccc2)c(=O)[nH]1`, the GI50 in the assay on DLD-1, in the assay with HOP-18 and with LXFL 529 was > 100 µM (inactive) each time.
As for `c1c2c(cc(-n3nnc4c3CCCCCC4)c1-n1nnc3c1CCCCCC3)CCCCCC2`, the GI50 in the assay on DMS-273 was 2.99 µM (inactive); with RXF 631 it was 10.1 µM (inactive); in the assay on SNB-78 it was 13.6 µM (inactive).
`Fc1ccccc1C1CC(C(c2ccccc2)c2ccccc2)=Nc2ccccc2S1` (stereo not given): the GI50 was 5.41 µM (inactive) in the assay with DLD-1; 6.85 µM (inactive) with DMS-114; 4.76 µM (inactive) in the assay on DMS-273; 16.2 µM (inactive) in the assay with HOP-18; 4.23 µM (inactive) in the assay on LXFL 529; 8.04 µM (inactive) in the assay with RXF 631.
On to `CC(=O)OCC1OC(N2C(=O)NC(=O)C3C=C4CCCCC4=CC32)C(OC(C)=O)C1OC(C)=O` (stereo not given), for which the GI50 in the assay on MDA-MB-231 and with T47D was > 100 µM (inactive) in each case.
`N#C/C(N)=C(C#N)/N=C/NCc1ccccc1`: the figures for the GI50 in the assay on MDA-MB-231 and with T47D were > 100 µM (inactive) and 75.9 µM (inactive), respectively.

Values taken from ChEMBL document CHEMBL1201862, “PubChem BioAssay data set” (2004).
